# Experimental data as given in US20030225132A1, “Estrogen receptor modulators” (priority 2002, published 2003).
# System: MCF-7 cells
# Test: MCF-7 Estrogen Dependent Proliferation Assay
# Format: cell-based
# Settings: Homo sapiens, MCF7; added to Estrogen Depleted Media (EDM); read-out: EC50 of stimulation of growth of MCF-7 cells
# From the text: MCF-7 Estrogen Dependent Proliferation Assay MCF-7 cells (ATCC #HTB-22) are human mammary gland adenocarcinoma cells that require estrogen for growth. The growth media (GM) for the MCF-7 cells is Minimum Essential Media (without phenol red) supplemented with fetal bovine serum ([…]) to 10%. The PBS serves as the sole source of estrogen and this GM supports the full growth of the cells and is used for the routine growth of the cell cultures. When MCF-7 cells are placed in a media in which 10% Charcoal-Dextran treated fetal bovine serum (CD-FBS) is substituted for PBS, the cells will cease to divide but will remain viable. […] The addition of estradiol to EDM stimulates the growth of the MCF-7 cells in a dose dependent manner with an EC50 of 2 pM. Growing MCF-7 cells are washed several times with EDM and the cultures then maintained in EDM for a minimum of 6 days in order to deplete the cells of endogenous estrogen. […] At this point, the culture supernatants are aspirated, the cells washed 2× with PBS, the wash solution aspirated and the protein content of each well determined. Each drug dilution is evaluated on a minimum of 5 wells and the range of dilution of the test compounds in the assay is 0.001 nM to 1000 nM. […] The assay is terminated at day 8-10 when the appropriate controls reach 80-90% confluency and the protein content of each well is determined as above.
compound,measurement,value
C[C@]12CC[C@@H]3c4ccc(O)cc4CC[C@H]3[C@@H]1CC[C@@H]2O [estradiol],EC50,2 pM
